# Assay results as given in PubChem BioAssay (NCI).
#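 96-well plates; 48 h exposure; 5 concentrations. Endpoints by linear interpolation between flanking doses. Not reached: highest tested concentration assigned. GI50 = concentration required for 50% inhibition of growth. Definition used: TGI = concentration required for complete inhibition of growth.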
# Legend:
# Assay in all cases: DTP human tumour cell line panel, 48 h
# BT-549 breast = test system: BT-549 breast
# HS 578T breast = test system: HS 578T breast
# NCI/ADR-RES ovarian = test system: NCI/ADR-RES ovarian
# A498 renal = test system: A498 renal
# SK-MEL-5 melanoma = test system: SK-MEL-5 melanoma
# UACC-257 melanoma = test system: UACC-257 melanoma
# HCC-2998 colon = test system: HCC-2998 colon
# IGROV1 ovarian = test system: IGROV1 ovarian
# MOLT-4 leukemia = test system: MOLT-4 leukemia
# SF-295 CNS = test system: SF-295 CNS
# NCI-H460 lung = test system: NCI-H460 lung
# HCT-15 colon = test system: HCT-15 colon
# SF-539 CNS = test system: SF-539 CNS
# CAKI-1 renal = test system: CAKI-1 renal
# SK-MEL-28 melanoma = test system: SK-MEL-28 melanoma
# T-47D breast = test system: T-47D breast
# KM12 colon = test system: KM12 colon
# COLO 205 colon = test system: COLO 205 colon
# MALME-3M melanoma = test system: MALME-3M melanoma
# SK-OV-3 ovarian = test system: SK-OV-3 ovarian
# ACHN renal = test system: ACHN renal
# HL-60(TB) leukemia = test system: HL-60(TB) leukemia
# UO-31 renal = test system: UO-31 renal
# TK-10 renal = test system: TK-10 renal
# SNB-75 CNS = test system: SNB-75 CNS
# OVCAR-8 ovarian = test system: OVCAR-8 ovarian
# SK-MEL-2 melanoma = test system: SK-MEL-2 melanoma
# SR leukemia = test system: SR leukemia
# OVCAR-4 ovarian = test system: OVCAR-4 ovarian
# A549 NSCLC = test system: A549 NSCLC
# M14 melanoma = test system: M14 melanoma
# NCI-H226 lung = test system: NCI-H226 lung
# PC-3 prostate = test system: PC-3 prostate
# NCI-H522 lung = test system: NCI-H522 lung
# CCRF-CEM leukemia = test system: CCRF-CEM leukemia
# MDA-MB-435 = test system: MDA-MB-435
# NCI-H23 lung = test system: NCI-H23 lung
# SW-620 colon = test system: SW-620 colon
# K-562 leukemia = test system: K-562 leukemia
# HT29 colon = test system: HT29 colon
# U251 CNS = test system: U251 CNS
# RXF 393 renal = test system: RXF 393 renal
# UACC-62 melanoma = test system: UACC-62 melanoma
# HOP-92 NSCLC = test system: HOP-92 NSCLC
# MCF7 breast = test system: MCF7 breast
# SF-268 CNS = test system: SF-268 CNS
# HCT-116 colon = test system: HCT-116 colon
# 786-0 renal = test system: 786-0 renal
# SN12C renal = test system: SN12C renal
# EKVX NSCLC = test system: EKVX NSCLC
# MDA-MB-231 breast = test system: MDA-MB-231 breast
# DU-145 prostate = test system: DU-145 prostate
# RPMI-8226 leukemia = test system: RPMI-8226 leukemia
# SNB-19 CNS = test system: SNB-19 CNS
# OVCAR-3 ovarian = test system: OVCAR-3 ovarian
# OVCAR-5 ovarian = test system: OVCAR-5 ovarian
# LOX IMVI melanoma = test system: LOX IMVI melanoma
# HOP-62 NSCLC = test system: HOP-62 NSCLC
structure (smiles),measurement,setting,value
Cc1c(C)c2c(c(N)c1C#N)C(=O)N(O)C2=O,TGI,BT-549 breast,> 100 µM
same,TGI,HS 578T breast,> 100 µM
same,TGI,NCI/ADR-RES ovarian,> 100 µM
same,TGI,A498 renal,> 100 µM
same,TGI,SK-MEL-5 melanoma,> 100 µM
same,TGI,UACC-257 melanoma,> 100 µM
same,TGI,HCC-2998 colon,> 100 µM
same,TGI,IGROV1 ovarian,> 100 µM
same,TGI,MOLT-4 leukemia,> 100 µM
same,TGI,SF-295 CNS,> 100 µM
same,TGI,NCI-H460 lung,> 100 µM
same,TGI,HCT-15 colon,> 100 µM
same,TGI,SF-539 CNS,> 100 µM
same,TGI,CAKI-1 renal,> 100 µM
same,TGI,SK-MEL-28 melanoma,> 100 µM
same,TGI,T-47D breast,> 100 µM
same,TGI,KM12 colon,> 100 µM
same,TGI,COLO 205 colon,> 100 µM
same,TGI,MALME-3M melanoma,> 100 µM
same,TGI,SK-OV-3 ovarian,> 100 µM
same,TGI,ACHN renal,> 100 µM
same,TGI,HL-60(TB) leukemia,> 100 µM
same,TGI,UO-31 renal,> 100 µM
same,TGI,TK-10 renal,> 100 µM
same,TGI,SNB-75 CNS,> 100 µM
same,TGI,OVCAR-8 ovarian,> 100 µM
same,TGI,SK-MEL-2 melanoma,> 100 µM
same,TGI,SR leukemia,> 100 µM
same,TGI,OVCAR-4 ovarian,> 100 µM
same,TGI,A549 NSCLC,> 100 µM
same,TGI,M14 melanoma,> 100 µM
same,TGI,NCI-H226 lung,> 100 µM
same,TGI,PC-3 prostate,> 100 µM
same,TGI,NCI-H522 lung,> 100 µM
same,TGI,CCRF-CEM leukemia,> 100 µM
same,TGI,MDA-MB-435,> 100 µM
same,TGI,NCI-H23 lung,> 100 µM
same,TGI,SW-620 colon,> 100 µM
same,TGI,K-562 leukemia,> 100 µM
same,TGI,HT29 colon,> 100 µM
same,TGI,U251 CNS,> 100 µM
same,TGI,RXF 393 renal,> 100 µM
same,TGI,UACC-62 melanoma,> 100 µM
same,TGI,HOP-92 NSCLC,> 100 µM
same,TGI,MCF7 breast,> 100 µM
same,TGI,SF-268 CNS,> 100 µM
same,TGI,HCT-116 colon,> 100 µM
same,TGI,786-0 renal,> 100 µM
same,TGI,SN12C renal,> 100 µM
same,TGI,EKVX NSCLC,> 100 µM
same,TGI,MDA-MB-231 breast,> 100 µM
same,TGI,DU-145 prostate,> 100 µM
same,TGI,RPMI-8226 leukemia,> 100 µM
same,TGI,SNB-19 CNS,> 100 µM
same,TGI,OVCAR-3 ovarian,> 100 µM
same,TGI,OVCAR-5 ovarian,> 100 µM
CO[C@H]1C[C@@H]2CC[C@@H](C)[C@@](O)(O2)C(=O)C(=O)N2CCCC[C@H]2C(=O)O[C@H]([C@H](C)C[C@@H]2CC[C@@H](OC(=O)C(C)(CO)CO)[C@H](OC)C2)CC(=O)[C@H](C)/C=C(\C)[C@@H](O)[C@@H](OC)C(=O)[C@H](C)C[C@H](C)\C=C/C=C/C=C/1C,GI50,BT-549 breast,0.00363 µM
same,TGI,BT-549 breast,> 10 µM
same,GI50,HS 578T breast,0.00133 µM
same,TGI,HS 578T breast,> 10 µM
same,GI50,NCI/ADR-RES ovarian,> 4.91 µM
same,TGI,NCI/ADR-RES ovarian,> 10 µM
same,GI50,A498 renal,0.00187 µM
same,GI50,SK-MEL-5 melanoma,1.35 µM
same,TGI,SK-MEL-5 melanoma,> 10 µM
same,GI50,UACC-257 melanoma,> 10 µM
same,TGI,UACC-257 melanoma,> 10 µM
same,TGI,HCC-2998 colon,> 10 µM
same,GI50,IGROV1 ovarian,< 0.001 µM
same,TGI,IGROV1 ovarian,> 10 µM
same,GI50,MOLT-4 leukemia,0.22 µM
same,TGI,MOLT-4 leukemia,> 10 µM
same,GI50,SF-295 CNS,< 0.001 µM
same,TGI,SF-295 CNS,> 10 µM
same,GI50,NCI-H460 lung,0.00131 µM
same,TGI,NCI-H460 lung,> 10 µM
same,GI50,HCT-15 colon,0.112 µM
same,TGI,HCT-15 colon,> 10 µM
same,GI50,SF-539 CNS,0.00576 µM
same,TGI,SF-539 CNS,> 10 µM
same,GI50,CAKI-1 renal,0.0352 µM
same,TGI,CAKI-1 renal,> 10 µM
same,GI50,SK-MEL-28 melanoma,0.0219 µM
same,TGI,SK-MEL-28 melanoma,> 10 µM
same,TGI,T-47D breast,> 10 µM
same,GI50,KM12 colon,> 10 µM
same,TGI,KM12 colon,> 10 µM
same,GI50,COLO 205 colon,> 5.94 µM
same,TGI,COLO 205 colon,> 10 µM
same,GI50,MALME-3M melanoma,0.00766 µM
same,TGI,MALME-3M melanoma,> 10 µM
same,GI50,SK-OV-3 ovarian,0.00139 µM
same,TGI,SK-OV-3 ovarian,> 10 µM
same,GI50,ACHN renal,> 9.24 µM
same,TGI,ACHN renal,> 10 µM
same,GI50,HL-60(TB) leukemia,> 10 µM
same,TGI,HL-60(TB) leukemia,> 10 µM
same,GI50,UO-31 renal,0.00102 µM
same,TGI,UO-31 renal,> 10 µM
same,TGI,TK-10 renal,> 10 µM
same,GI50,SNB-75 CNS,< 0.001 µM
same,TGI,SNB-75 CNS,> 10 µM
same,TGI,OVCAR-8 ovarian,> 10 µM
same,GI50,SK-MEL-2 melanoma,1.68 µM
same,TGI,SK-MEL-2 melanoma,> 10 µM
same,GI50,SR leukemia,0.00251 µM
same,TGI,SR leukemia,> 10 µM
same,GI50,OVCAR-4 ovarian,< 0.001 µM
same,TGI,OVCAR-4 ovarian,> 10 µM
same,GI50,A549 NSCLC,0.067 µM
same,TGI,A549 NSCLC,> 10 µM
same,GI50,LOX IMVI melanoma,0.00435 µM
same,TGI,LOX IMVI melanoma,> 10 µM
same,GI50,M14 melanoma,> 6.06 µM
same,TGI,M14 melanoma,> 10 µM
same,GI50,NCI-H226 lung,0.0273 µM
same,TGI,NCI-H226 lung,> 10 µM
same,GI50,PC-3 prostate,0.00144 µM
same,TGI,PC-3 prostate,> 10 µM
same,GI50,NCI-H522 lung,0.444 µM
same,TGI,NCI-H522 lung,> 10 µM
same,GI50,CCRF-CEM leukemia,0.0368 µM
same,TGI,CCRF-CEM leukemia,> 10 µM
same,GI50,MDA-MB-435,2.36 µM
same,TGI,MDA-MB-435,> 10 µM
same,GI50,NCI-H23 lung,0.0866 µM
same,TGI,NCI-H23 lung,> 10 µM
same,GI50,SW-620 colon,> 10 µM
same,TGI,SW-620 colon,> 10 µM
same,GI50,K-562 leukemia,5.96 µM
same,TGI,K-562 leukemia,> 10 µM
same,GI50,HT29 colon,1.47 µM
same,TGI,HT29 colon,> 10 µM
same,TGI,U251 CNS,> 10 µM
same,GI50,RXF 393 renal,< 0.001 µM
same,TGI,RXF 393 renal,> 10 µM
same,GI50,UACC-62 melanoma,0.0087 µM
same,TGI,UACC-62 melanoma,> 10 µM
same,GI50,HOP-92 NSCLC,0.00141 µM
same,TGI,HOP-92 NSCLC,> 8.98 µM
same,GI50,MCF7 breast,0.00422 µM
same,TGI,MCF7 breast,> 10 µM
same,TGI,SF-268 CNS,> 10 µM
same,GI50,HCT-116 colon,> 10 µM
same,TGI,HCT-116 colon,> 10 µM
same,GI50,786-0 renal,0.0149 µM
same,TGI,786-0 renal,> 10 µM
same,GI50,SN12C renal,> 10 µM
same,TGI,SN12C renal,> 10 µM
same,GI50,EKVX NSCLC,0.00167 µM
same,TGI,EKVX NSCLC,> 10 µM
same,GI50,HOP-62 NSCLC,0.0147 µM
same,TGI,HOP-62 NSCLC,> 10 µM
same,GI50,MDA-MB-231 breast,> 4.32 µM
same,TGI,MDA-MB-231 breast,> 10 µM
same,GI50,DU-145 prostate,0.045 µM
same,TGI,DU-145 prostate,> 10 µM
same,GI50,RPMI-8226 leukemia,0.00102 µM
same,TGI,RPMI-8226 leukemia,> 10 µM
same,TGI,SNB-19 CNS,> 10 µM
same,GI50,OVCAR-3 ovarian,0.685 µM
same,TGI,OVCAR-3 ovarian,> 10 µM
same,GI50,OVCAR-5 ovarian,> 6.89 µM
same,TGI,OVCAR-5 ovarian,> 10 µM
